Holding throughout (assay type): in vivo, mouse
Assay [1] concerns Calbindin1 transcripts. As to the kind of experiment: qPCR of Calbindin1 transcripts in the brain. Conditions: day 100, once weekly dosing; Vo 50 mg/Kg; 2×HPBCD 4000 mg/Kg; TCF. The method, then: (§1) Vorinostat (50 mg/Kg)—Vorinostat was first dissolved in DMSO (100 mg/ml) and then diluted with 9 volume of Polyethylene Glycol 400 (PEG). This drug solution was named as ‘solution A’. Solution A was diluted with equal volume of water where the final concentration of each component was as follows; Vorinostat, 5 mg/ml; DMSO, 5% and PEG, 45%. Mice were given weekly intraperitoneal (i.p) injections starting at 21 days. Vorinostat (100 mg/Kg)—Vorinostat was first dissolved in DMSO (200 mg/ml) and then mixed with 9 volumes of PEG. Rest of the methods and injections plan were as described above. HPBCD (4000 mg/Kg)—40% HPBCD solution prepared in water. Mice were given weekly i.p injections starting at 7 days. HPBCD (2000 mg/Kg)—20% HPBCD solution prepared in water. Mice were given weekly i.p injections starting at 7 days. TCF (Vorinostat, 50 mg/Kg+HPBCD, 2000 mg/Kg, DMSO, 5%+PEG, 45%)—To prepare the formulation, the ‘solution A’ was first prepared as described above and equal volume of 40% HPBCD solution was slowly layered on top of it. The solution was gently mixed for 10 min at RT on rocker set at medium speed. […]
(§2) Quantitative PCR (qPCR) was performed using Power SYBR Green RNA-to-CT 1-Step Kit and an ABI Prism 7500 Fast real-time PCR system (Applied Biosystems, Grand Island, USA). […] The relative amount of transcript was determined using comparative CT method. […]
A general note: Real-time PCR tracks product formation cycle by cycle.

In assay [2] the test system is Npc1 transcript. As to the kind of experiment: qPCR of Npc1 transcript in brain. The following applies: at 100 days. On the procedure: as §1, §2
Assay [3] has as its system Npc1^nmf164 mice. As to the kind of experiment: Survival of drug treated NPC mice (Kaplan-Meier). The following applies: for median life span: males and females combined, weekly i.p., Vo 50 mg/Kg in PEG, 2×HPBCD 4000 mg/Kg, TCF (Vo 50 mg/Kg+HPBCD 2000 mg/Kg+PEG); for effect on animal survival: i.p. once weekly from day 21.
Description: The present study, inter alia, evaluated the efficacy of Vorinostat (Vo) an HDACi for the treatment of Niemann-Pick Type C disease in a mouse model. […] We hypothesized poor solubility, reduced plasma exposure and penetration across the Blood Brain Barrier (BBB) of Vo to be the possible reasons behind its ineffectiveness in the animals. To overcome these limitations, we used HPBCD as an excipient and made a formulation that contained Vo, HPBCD and polyethylene glycol (PEG) and named it Triple combination Formulation (TCF). The effect of TCF was evaluated using different molecular, biochemical, histological and neurobehavioral measures in NPC mice at indicated ages. For survival and neurobehavioral testing 8-10 mice were used in groups injected with drug. At least 6 mice were used in vehicle treated group. End point for survival studies were set at ≥30% weight loss. For molecular, biochemical, histological analyses at least 3-4 mice were used with at least two technical replicates in each assay. Animals were randomly assigned to treatment groups. Equal numbers of males and females were included in each group. Two independent PK experiments in mice were done each containing 5 mice in a group. The reliability and robustness of neurobehavioral scoring system was evaluated by two blinded investigators. Investigators were blinded to the drug injections while assessing the neurobehavioral functions. Determination of Vo in plasma samples were done by blinded investigators at the Metabolite Profiling Facility, Purdue University, IN, USA. Sample sizes were chosen based on previous experience or similar studies conducted by others. All data points were used in the statistical analyses.
Npc1^nmf164, BALB/c strain carrying an aspartate to glycine mutation at position 1005 (D1005G) in Npc1 gene was used as NPC disease model. (Maue, R. A., et al., Hum Mol Genet 21: 730-750 (2012)).When animals were sick and unable to reach the food provided on the holder, regular food (2019 Teklad diet, Harlan Laboratories, Indianapolis, Ind.) was replaced with DietGel 76A (Clear H2O, Portland, Me.). Studies with mice were performed with approval and authorization from the Institutional Animal Care and Use Committee of University of Notre Dame, Indiana, USA.
as §1, with “speed. The final concentration of each component in the formulation was as follows; Vorinsotat, 5 mg/ml; DMSO 5%; PEG, 45%; and HPBCD, 20%. Mice were given two i.p doses of HPBCD (2000 mg/Kg) at 7 and 15 days. Starting from 21 days mice were given weekly i.p injection of TCF. Vehicle control (5% DMSO and 45% PEG)—It was made by mixing 1 volume of DMSO with 9 volume of PEG and then diluted with equal volume of water. Mice were given weekly i.p injection starting from 21 days. All drug solutions were stored at −80° C. Fresh vials of frozen stock were thawed for injection on different days.” for “speed.”

`O=C(CCCCCCC(=O)Nc1ccccc1)NO` [vorinostat]: the “expression of calbindin transcripts in the brain” value in assay [1] is “no change or depressed levels of calbindin transcripts”. Besides, in assay [2], the “Npc1 transcript levels in the brain” value is listed as “little or no effect on brain Npc1 transcript levels”. Moreover, the median life span in assay [3] worked out at 134 days. Besides, the “effect on animal survival” value in assay [3] (vorinostat 50 mg/Kg in PEG) is recorded as “no significant survival benefit”; in assay [3] (vorinostat 50 mg/Kg in PEG, listed as Vorinostat), “no significant beneficial effect on animal survival”; in assay [3] (vorinostat 100 mg/Kg in PEG) it was “no survival benefit”.

Take `CC(O)COC[C@H]1O[C@@H]2O[C@H]3[C@H](O)[C@@H](O)[C@@H](O[C@H]4[C@H](O)[C@@H](O)[C@@H](O[C@H]5[C@H](O)[C@@H](O)[C@@H](O[C@H]6[C@H](O)[C@@H](O)[C@@H](O[C@H]7[C@H](O)[C@@H](O)[C@@H](O[C@H]8[C@H](O)[C@@H](O)[C@@H](O[C@H]1[C@H](O)[C@H]2O)O[C@@H]8COCC(C)O)O[C@@H]7COCC(C)O)O[C@@H]6COCC(C)O)O[C@@H]5COCC(C)O)O[C@@H]4COCC(C)O)O[C@@H]3COCC(C)O` (stereo partly drawn) [HPBCD, 2-Hydroxypropyl-β-cyclodextrin]: in assay [1], the “expression of calbindin transcripts in the brain” value is “no change or depressed levels of calbindin transcripts”. In addition, the “Npc1 transcript levels in the brain” value in assay [2] is on record as “little or no effect on brain Npc1 transcript levels”. In assay [3] (4000 mg/Kg weekly i.p., 180 vs 134 d), the “increase of survival relative to vorinostat in PEG” value is on record as “increased survival by a third”. In addition, the median life span in assay [3] was 180 days.

Values taken from patent US10413517B2, “Composition and method for the treatment of neurological diseases and cerebral injury” (UNIVERSITY OF NOTRE DAME DU LAC, priority 2014, dated 2019).
